Results reported in PubChem BioAssay (NCI).
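Values below derive from 48-hour exposures of cells grown in 96-well plates, with endpoints linearly interpolated between the two concentrations bracketing the appropriate inhibition level. TGI denotes the concentration required for complete inhibition of growth.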

Experiments:
Assay in all cases: inhibition of tumour cell growth, NCI panel, 48 h
[1] = test system: LXFL 529 NSCLC
[2] = test system: DLD-1 colon
[3] = test system: M19-MEL melanoma
[4] = test system: HOP-18 NSCLC
[5] = test system: XF 498 CNS
[6] = test system: DMS 273 small cell lung
[7] = test system: SNB-78 CNS
[8] = test system: RXF-631 renal

COc1ccc(C2=C(Cl)c3cc(OC)c(OC)cc3C2)cc1OC
TGI [1]: > 100 µM
TGI [2]: > 100 µM
TGI [3]: > 100 µM
TGI [4]: > 100 µM
TGI [5]: > 100 µM
TGI [6]: > 100 µM
TGI [7]: > 100 µM

COc1ccc(CCCN2c3ccccc3Sc3ccccc32)cc1
TGI [1]: > 100 µM
TGI [2]: > 100 µM
TGI [4]: > 100 µM
TGI [5]: > 100 µM
TGI [6]: > 100 µM
TGI [7]: > 100 µM

O=C(NN1C(=O)C(Cl)C1c1ccccc1Cl)c1ccccc1O (stereo unspecified)
TGI [1]: > 100 µM
TGI [2]: > 100 µM
TGI [3]: > 100 µM
TGI [4]: > 100 µM
TGI [5]: > 100 µM
TGI [7]: > 100 µM

COc1cc(C(O)C(=O)c2cnc3cc([N+](=O)[O-])ccc3n2)ccc1O (stereo unspecified)
TGI [1]: > 100 µM
TGI [2]: > 100 µM
TGI [3]: > 100 µM
TGI [5]: > 100 µM
TGI [6]: > 100 µM
TGI [8]: > 100 µM

Cc1ccc(NC(=O)/C(=N/NC(=O)C[N+](C)(C)C)c2nc3ccccc3[nH]c2=O)cc1
TGI [1]: > 100 µM
TGI [2]: > 100 µM
TGI [3]: > 100 µM
TGI [4]: > 100 µM
TGI [6]: > 100 µM
TGI [7]: > 100 µM
TGI [8]: > 100 µM

Cn1cnc(SC2=C3C(=O)C=C4S[C@H]5C[C@]42c2c(c(O)c4c6c2=[N+]3CCC=6C=N4)N5)c1CC(N)C(=O)O (stereo partly specified)
TGI [1]: 27.1 µM
TGI [2]: 31.4 µM
TGI [3]: 21.5 µM
TGI [4]: > 100 µM
TGI [5]: 28.7 µM
TGI [6]: 26 µM
TGI [7]: 40.9 µM

O=C(Nc1ccc(Sc2ccc(N=Nc3c(O)c(S(=O)(=O)O)cc4cc(S(=O)(=O)O)ccc34)cc2)cc1)c1ccc(N=Nc2c(O)c(S(=O)(=O)O)cc3cc(S(=O)(=O)O)ccc23)cc1
TGI [1]: > 100 µM
TGI [2]: > 100 µM
TGI [3]: > 100 µM
TGI [4]: 79.7 µM
TGI [5]: > 100 µM
TGI [6]: > 100 µM
TGI [7]: > 100 µM

CC1=NN(C(=O)Cc2ccccc2)C(=O)/C1=C\c1ccccc1O
TGI [1]: > 100 µM
TGI [2]: > 100 µM
TGI [3]: > 100 µM
TGI [5]: > 100 µM
TGI [7]: > 100 µM
